From ChEMBL document CHEMBL4334527, “Proline-Based Allosteric Inhibitors of Zika and Dengue Virus NS2B/NS3 Proteases” (J Med Chem, 2019)
Activity calls are given as the source filed them. The rule behind the calls is not given here.

Legend:
Nonstructural protein 3 [1] = molecular target: T1, Nonstructural protein 3 (Zika virus, UniProt A0A024AXB9); experiment: (§1) Inhibition of N-terminal hexa-histidine tagged Zika virus NS2B/NS3 protease expressed in Escherichia coli BL21-Gold (DE3) using fluorogenic AMC-substituted peptide boc-GRR-7-amino-4-methylcoumarin measured every 30 secs for 10 mins by fluorometric assay
T1 sequence (A0A024AXB9 whole entry): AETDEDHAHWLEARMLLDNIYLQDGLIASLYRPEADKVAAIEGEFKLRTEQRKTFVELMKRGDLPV

[2] = (§2) Inhibition of N-terminal hexa-histidine tagged Dengue virus 2 NS2B/NS3 protease I30A/L31A mutant expressed in Escherichia coli BL21-Gold (DE3) using fluorogenic AMC-substituted peptide boc-GRR-7-amino-4-methylcoumarin measured every 30 secs for 10 mins by fluorometric assay; design: species or system dengue virus type 2
dengue virus type 2 [3] = experiment: as §2, with “(DE3) at 20 uM” for “(DE3)”, “assay relative to control” for “assay”
Zika virus [4] = experiment: Antiviral activity against Zika virus infected in human A549 cells assessed as induction of redistribution of the ZIKV Env protein from ER to cytoplasm at 0.5 uM by confocal scanning microscopy; type: functional, organism-based
Zika virus [5] = experiment: Antiviral activity against Zika virus French Polynesia infected in human A549 cells assessed as reduction in viral RNA at 5 uM measured after 24 to 72 hrs post infection by RT-qPCR analysis; type: functional, organism-based
Zika virus [6] = experiment: Antiviral activity against Zika virus Uganda infected in human A549 cells assessed as reduction in viral RNA at 5 uM measured after 24 to 72 hrs post infection by RT-qPCR analysis; type: functional, organism-based
Zika virus [7] = experiment: Antiviral activity against Zika virus infected in African green monkey Vero cells assessed as suppression of viral replication at 10 uM pre-incubated with cells for 1 hr before viral infection and measured after 4 days by RT-qPCR analysis; type: functional, organism-based
[8] = molecular target: Nonstructural protein 3 (Zika virus) (UniProt A0A024AXB9); experiment: Inhibition of N-terminal hexa-histidine tagged Zika virus NS2B/NS3 protease expressed in Escherichia coli BL21-Gold (DE3) at 20 uM using fluorogenic AMC-substituted peptide boc-GRR-7-amino-4-methylcoumarin measured every 30 secs for 10 mins by fluorometric assay relative to control
Chain of Nonstructural protein 3 (Zika virus) (A0A024AXB9 as listed by the source): as the sequence (A0A024AXB9 whole entry) above

Zika virus [9] = experiment: Antiviral activity against Zika virus Uganda infected in African green monkey Vero cells assessed as reduction in plaque forming units at 5 uM measured after 96 hrs by crystal violet staining based assay; type: functional, organism-based
A549 = experiment: Cytotoxicity against human A549 cells assessed as reduction in cell viability up to 5 uM by Presto blue cell viability reagent based assay
Zika virus [10] = experiment: Antiviral activity against Zika virus French Polynesia infected in African green monkey Vero cells assessed as reduction in plaque forming units at 5 uM measured after 96 hrs by crystal violet staining based assay; type: functional, organism-based
[11] = Drug level in rat liver microsomes treated with (R)-N-(5,6-Dimethoxybenzo[d]thiazol-2-yl)-1-tosylpyrrolidine-2-carboxamide assessed as compound formation in presence of NADPH generating system by LC-MS/MS analysis; type: ADME, Microsome
[12] = Drug level in rat liver microsomes treated with (S)-N-(5,6-Dimethoxybenzo[d]thiazol-2-yl)-1-tosylpyrrolidine-2-carboxamide assessed as compound formation in presence of NADPH generating system by LC-MS/MS analysis; type: ADME, Microsome
Zika virus [13] = experiment: Antiviral activity against Zika virus infected in African green monkey Vero cells assessed as suppression of viral replication at 3 uM pre-incubated with cells for 1 hr before viral infection and measured after 4 days by RT-qPCR analysis; type: functional, organism-based
dengue virus type 2 [14] = experiment: Antiviral activity against Dengue virus 2 infected in African green monkey Vero cells assessed as suppression of viral replication at 3 uM pre-incubated with cells for 1 hr before viral infection and measured after 4 days by RT-qPCR analysis; type: functional, organism-based
dengue virus type 2 [15] = experiment: Antiviral activity against Dengue virus 2 infected in African green monkey Vero cells assessed as suppression of viral replication at 10 uM pre-incubated with cells for 1 hr before viral infection and measured after 4 days by RT-qPCR analysis; type: functional, organism-based
Nonstructural protein 3 [16] = molecular target: T1, Nonstructural protein 3; experiment: Binding affinity to N-terminal hexa-histidine tagged Zika virus NS2B/NS3 protease expressed in Escherichia coli BL21-Gold (DE3) by microscale thermophoresis method
Nonstructural protein 3 [17] = molecular target: T1, Nonstructural protein 3; experiment: as §1, with “Non-competitive inhibition” for “Inhibition”, “using 50 to 200 uM” for “using”, “assay based Dixon plot analysis” for “assay”
[18] = Drug metabolism in rat liver microsomes assessed as formation of (S)-N-(5,6-Dimethoxybenzo[d]thiazol-2-yl)-1-((4-(hydroxymethyl) phenyl) sulfonyl)pyrrolidine-2-carboxamide in presence of NADPH generating system by LC-MS/MS analysis; type: ADME, Microsome
[19] = Drug metabolism in rat liver microsomes assessed as formation of (R)-N-(5,6-Dihydroxybenzo[d]thiazol-2-yl)-1-tosylpyrrolidine-2-carboxamide in presence of NADPH generating system by LC-MS/MS analysis; type: ADME, Microsome
[20] = Drug metabolism in rat liver microsomes assessed as formation of (R)-N-(5,6-Dimethoxybenzo[d]thiazol-2-yl)-1-((4-(hydroxymethyl) phenyl) sulfonyl)pyrrolidine-2-carboxamide in presence of NADPH generating system by LC-MS/MS analysis; type: ADME, Microsome
[21] = Drug metabolism in rat liver microsomes assessed as formation of (S)-1-Benzoyl-N-(5,6-dihydroxybenzo[d]thiazol-2-yl)pyrrolidine-2-carboxamide in presence of NADPH generating system by LC-MS/MS analysis; type: ADME, Microsome

O=C(Nc1nc2ccc([N+](=O)[O-])cc2s1)[C@H]1CCCN1C(=O)c1ccccc1
IC50 (Nonstructural protein 3 [1]): 21900 nM
IC50 [2]: 33900 nM

O=C(Nc1nc2cc(O)c(O)cc2s1)[C@H]1CCCN1S(=O)(=O)c1ccc(-c2ccccc2)cc1
IC50 (Nonstructural protein 3 [1]): 2470 nM
IC50 [2]: 10900 nM

O=C(Nc1nc2cc(O)c(O)cc2s1)[C@@H]1CCCN1S(=O)(=O)c1ccc(-c2ccccc2)cc1
IC50 (Nonstructural protein 3 [1]): 3170 nM
IC50 [2]: 13500 nM

O=C(Nc1nc2cc(O)c(O)cc2s1)[C@@H]1CCCN1C(=O)c1ccccc1
IC50 (Nonstructural protein 3 [1]): 1550 nM
inhibition (dengue virus type 2 [3]): 28%

CC(=O)Nc1ccc2cc(S(=O)(=O)N3CCC[C@@H]3C(=O)Nc3nc4cc(O)c(O)cc4s3)ccc2c1
IC50 (Nonstructural protein 3 [1]): 1350 nM
inhibition (dengue virus type 2 [3]): 18%

COc1ccc2cc(Oc3ccccc3C(=O)Nc3nc4cc(OC)c(OC)cc4s3)ccc2c1
inhibition (dengue virus type 2 [3]): inactive
Activity (Zika virus [4]): Active
Activity (Zika virus [5]): Active
Activity (Zika virus [6]): Active
Activity (Zika virus [7]): inactive
inhibition [8]: inactive
Activity (Zika virus [9]): Active
Activity (A549): Non-Toxic
Activity (Zika virus [10]): Active

CC(=O)Nc1ccc2cc(S(=O)(=O)N3CCC[C@H]3C(=O)Nc3nc4cc(O)c(O)cc4s3)ccc2c1
IC50 (Nonstructural protein 3 [1]): 2950 nM
inhibition (dengue virus type 2 [3]): 29%

COc1ccc(S(=O)(=O)N2CCC[C@@H]2C(=O)Nc2nc3cc(O)c(O)cc3s2)cc1
IC50 (Nonstructural protein 3 [1]): 860 nM
inhibition (dengue virus type 2 [3]): 28%

Cc1ccc(S(=O)(=O)N2CCCC[C@@H]2C(=O)Nc2nc3cc(O)c(O)cc3s2)cc1
IC50 (Nonstructural protein 3 [1]): 580 nM
IC50 [2]: 29000 nM

O=C(Nc1nc2ccc([N+](=O)[O-])cc2s1)[C@@H]1CCCN1C(=O)c1ccccc1
inhibition (dengue virus type 2 [3]): 41%
inhibition [8]: 44%

COc1cc2nc(NC(=O)C3CCCN3S(=O)(=O)c3ccc([N+](=O)[O-])cc3)sc2cc1OC (configuration not stated)
inhibition (dengue virus type 2 [3]): inactive
inhibition [8]: inactive

COc1cc2nc(NC(=O)[C@H]3CCCN3S(=O)(=O)c3ccc(CO)cc3)sc2cc1OC
Drug uptake [11]: Active
Drug uptake [12]: Active

O=C(Nc1nc2cc(O)c(O)cc2s1)[C@@H]1CCCN1S(=O)(=O)c1cccc([N+](=O)[O-])c1
IC50 (Nonstructural protein 3 [1]): 1780 nM
inhibition (dengue virus type 2 [3]): 25%

COc1ccc(S(=O)(=O)N2CCC[C@H]2C(=O)Nc2nc3cc(O)c(O)cc3s2)cc1
IC50 (Nonstructural protein 3 [1]): 1320 nM
inhibition (dengue virus type 2 [3]): 36%

Cc1ccc(S(=O)(=O)NCC(=O)Nc2nc3cc(O)c(O)cc3s2)cc1
IC50 (Nonstructural protein 3 [1]): 810 nM
IC50 [2]: 23000 nM

O=C(Nc1nc2cc(O)c(O)cc2s1)[C@H]1CCCN1S(=O)(=O)c1ccc([N+](=O)[O-])cc1
IC50 (Nonstructural protein 3 [1]): 320 nM
Activity (Zika virus [13]): inactive
IC50 [2]: 10000 nM
Activity (dengue virus type 2 [14]): Active

O=C(Nc1nc2cc(O)c(O)cc2s1)[C@@H]1CCCN1S(=O)(=O)c1ccc([N+](=O)[O-])cc1
IC50 (Nonstructural protein 3 [1]): 930 nM
Activity (Zika virus [7]): inactive
IC50 [2]: 8580 nM
Activity (dengue virus type 2 [15]): Active

Cc1ccc(S(=O)(=O)N2CCCC[C@H]2C(=O)Nc2nc3cc(O)c(O)cc3s2)cc1
IC50 (Nonstructural protein 3 [1]): 510 nM
IC50 [2]: 13000 nM

Cc1ccc(S(=O)(=O)N2CCC[C@H]2C(=O)Nc2nc3cc(O)c(O)cc3s2)cc1
IC50 (Nonstructural protein 3 [1]): 2320 nM
Drug uptake [11]: Active
Activity (Zika virus [5]): inactive
Activity (Zika virus [6]): inactive
Activity (Zika virus [7]): inactive
IC50 [2]: 25200 nM
Activity (A549): Non-Toxic
Kd (Nonstructural protein 3 [16]): 240 nM
Drug uptake [12]: Active

COc1cc2nc(NC(=O)C3CCCN3S(=O)(=O)c3ccc(C)cc3)sc2cc1OC (configuration not stated)
inhibition (dengue virus type 2 [3]): inactive
inhibition [8]: inactive

O=C(Nc1nc2cc(O)c(O)cc2s1)[C@@H]1CCCN1S(=O)(=O)c1ccc(Cl)cc1
IC50 (Nonstructural protein 3 [1]): 930 nM
inhibition (dengue virus type 2 [3]): 39%

O=C(Nc1nc2cc(O)c(O)cc2s1)[C@H]1CCCN1S(=O)(=O)c1ccc(Cl)cc1
IC50 (Nonstructural protein 3 [1]): 1400 nM
inhibition (dengue virus type 2 [3]): 34%

Cc1ccc(S(=O)(=O)N2CCCC(C(=O)Nc3nc4cc(O)c(O)cc4s3)C2)cc1 (racemic)
IC50 (Nonstructural protein 3 [1]): 4550 nM
inhibition (dengue virus type 2 [3]): 34%

O=C(Nc1nc2cc(O)c(O)cc2s1)[C@H]1CCCN1C(=O)c1ccccc1
IC50 (Nonstructural protein 3 [1]): 940 nM
inhibition (dengue virus type 2 [3]): 33%

Cc1ccc(S(=O)(=O)N2CCC[C@@H]2C(=O)Nc2nc3ccc([N+](=O)[O-])cc3s2)cc1
inhibition (dengue virus type 2 [3]): 18%
inhibition [8]: 31%

O=C(Nc1nc2cc(O)c(O)cc2s1)[C@H]1CCCN1S(=O)(=O)c1ccc(F)cc1
IC50 (Nonstructural protein 3 [1]): 1030 nM
inhibition (dengue virus type 2 [3]): 17%

O=C(Nc1nc2cc(O)c(O)cc2s1)[C@H]1CCCN1S(=O)(=O)c1cccc([N+](=O)[O-])c1
IC50 (Nonstructural protein 3 [1]): 1110 nM
inhibition (dengue virus type 2 [3]): 33%

Cc1ccc(S(=O)(=O)Nc2ccccc2C(=O)Nc2nc3cc(O)c(O)cc3s2)cc1
IC50 (Nonstructural protein 3 [1]): 6430 nM
IC50 (Nonstructural protein 3 [17]): 5360 nM
IC50 [2]: 15300 nM

O=C(Nc1nc2cc(O)c(O)cc2s1)C1CCCCC1
inhibition (dengue virus type 2 [3]): 20%
inhibition [8]: 36%

COc1cc2nc(NC(=O)[C@@H]3CCCN3S(=O)(=O)c3ccc(CO)cc3)sc2cc1OC
Drug uptake [11]: Active
Drug uptake [12]: Active

Cc1ccc(S(=O)(=O)N2CCC(C(=O)Nc3nc4cc(O)c(O)cc4s3)CC2)cc1
IC50 (Nonstructural protein 3 [1]): 5950 nM
inhibition (dengue virus type 2 [3]): 41%

COc1cc2nc(NC(=O)C3CCCN3S(=O)(=O)c3ccc(Cl)cc3)sc2cc1OC (configuration not stated)
inhibition (dengue virus type 2 [3]): inactive
inhibition [8]: inactive

O=C(Nc1nc2cc(O)c(O)cc2s1)[C@@H]1CCCN1S(=O)(=O)c1ccccc1
IC50 (Nonstructural protein 3 [1]): 1430 nM
inhibition (dengue virus type 2 [3]): 27%

COc1cc2nc(NC(=O)[C@@H]3CCCN3S(=O)(=O)c3ccc(C)cc3)sc2cc1OC
Drug metabolism [18]: Metabolite_Detected
Activity (Zika virus [5]): inactive
Activity (Zika virus [6]): inactive
Activity (Zika virus [7]): inactive
Drug metabolism [19]: Metabolite_Detected
Drug metabolism [20]: Metabolite_Detected
Activity (A549): Non-Toxic
Drug metabolism [21]: Metabolite_Detected
Activity (dengue virus type 2 [15]): Active

Cc1ccc(S(=O)(=O)N2CCC[C@@H]2C(=O)Nc2nc3cc(O)c(O)cc3s2)cc1
IC50 (Nonstructural protein 3 [1]): 1320 nM
Drug uptake [11]: Active
Activity (Zika virus [13]): inactive
Activity (Zika virus [5]): inactive
Activity (Zika virus [6]): inactive
IC50 [2]: 19700 nM
Activity (A549): Non-Toxic
Kd (Nonstructural protein 3 [16]): 490 nM
Drug uptake [12]: Active

O=C(Nc1nc2cc(O)c(O)cc2s1)[C@H]1CCCN1S(=O)(=O)c1ccccc1
IC50 (Nonstructural protein 3 [1]): 1860 nM
inhibition (dengue virus type 2 [3]): 21%

COc1ccc(S(=O)(=O)N2CCC[C@@H]2C(=O)Nc2nc3cc(OC)c(OC)cc3s2)cc1
inhibition (dengue virus type 2 [3]): inactive
inhibition [8]: inactive
